Assay results: US20230019619A1, “TREATMENT OF A DISEASE OF THE GASTROINTESTINAL TRACT WITH A TLR MODULATOR” (BIORA THERAPEUTICS, INC., priority 2016, published 2023)

Assay: Tacrolimus tissue pharmacokinetics, oral versus intra-cecal ingestible device delivery
Format: in vivo, Yorkshire-Cross farm swine
Settings: swine, intra-cecal as compared to oral, 12 hours post-dose
Protocol: The primary objective of this study was to compare the tissue, plasma, rectal sample, and GI content pharmacokinetics of tacrolimus through oral versus intra-cecal ingestible device delivery in normal Yorkshire-Cross farm swine.
No further randomization procedure was employed.
Animals in Group 1 received an ingestible device containing 0.8 mL of vehicle solution (80% alcohol, 20% HCO-60). Animals in Group 2 received orally […] liquid formulation of tacrolimus at 4 mg/0.8 mL per animal (Prograf: 5 mg/mL). Animals in Group 3 received intra-cecally an ingestible device containing tacrolimus at 1 mg in 0.8 mL per ingestible device. […]
Approximately 200˜400 mg of rectal content were collected, if available, with a fecal swab (Copan Diagnostics Nylon Flocked Dry Swabs, 502CS01). The fecal swab was pre-weighed and weighed after collection in the collection tube (Sterile Tube and Cap No Media, PFPM913S), and the sample weight was recorded. […]
For tissue necropsy, small intestine fluid and cecal fluid were collected separately from all the animals into two separate square plastic bottles, and stored at −20° C. The length and diameter of the cecum and the colon was measured from one animal in each group and recorded for reference. […] All samples were weighed, and the tissue sample weights were recorded. […]

C=CC[C@@H]1/C=C(\C)C[C@H](C)C[C@H](OC)[C@H]2O[C@@](O)(C(=O)C(=O)N3CCCC[C@H]3C(=O)O[C@H](/C(C)=C/[C@@H]3CC[C@@H](O)[C@H](OC)C3)[C@H](C)[C@@H](O)CC1=O)[C@H](C)C[C@@H]2OC [tacrolimus]
mean concentration in the cecum tissue and the proximate colon tissue (FIG. 76): higher
